Measurements from patent US20250032499A1, “METHODS OF TREATING PERIPHERAL T-CELL LYMPHOMA” (Secura Bio, Inc., priority 2021, published 2025).

Tests used:
[1] = test system: patients with relapsed or refractory peripheral T-cell lymphoma (R/R PTCL); test: Phase 2 open-label parallel cohort trial of duvelisib in R/R PTCL, dose-optimization phase (25 mg BID vs 75 mg BID); format: in vivo, human; details: for overall response rate (ORR): 28-day cycles, oral
Procedure: Prior to the present disclosure, Applicant ran a clinical trial using duvelisib to treat PTCL. The trial included two cohorts. In cohort 1, subjects were orally administered duvelisib at a starting dose of 25 mg twice daily (BID), with potential escalation on a per-patient basis to 50 mg BID and then 75 mg BID, based on the patient's response to and tolerance of therapy. Doses were administered in 28-day cycles. In cohort 2, subjects were orally administered 75 mg duvelisib BID, in 28-day cycles. The overall response rate (ORR) in the 75 mg BID cohort was 54% ORR.
A phase 2, open-label, multi-center, parallel cohort trial of duvelisib in R/R PTCL was carried out. Patients were treated with duvelisib for two 28-day cycles with either 25 mg BID (DUV25) or 75 mg BID (DUV75). Patients with pathologically confirmed R/R PTCL (WHO criteria) after ≥2 cycles of ≥1 prior standard regimen, and a CD4 lymphocyte count of ≥50/mm^3 were eligible for enrollment in the study.

[2] = test system: patients with relapsed or refractory peripheral T-cell lymphoma (R/R PTCL); test: Expansion phase (PRIMO-EP) of the trial in R/R PTCL: duvelisib 75 mg BID for 2 cycles, then 25 mg BID; format: in vivo, human; details: for AESI Cutaneous reactions, % / AESI Diarrhea, % / AESI Infections, % / AESI Neutropenia/neutrophil count decreased, % / AESI Pneumonia, % / AESI Pneumonitis, % / AESI Transaminase elevation, % / AESI Colitis, %: all grades
Procedure: An expansion phase of the above trial described in Example 1 was carried out. Based on the dose optimization results, patients in the expansion phase received duvelisib at 75 mg BID for 2 cycles to maximize rapid tumor control, followed by 25 mg BID to maintain long-term disease control and mitigate late toxicities, until progressive disease (PD) or unacceptable toxicity. The primary endpoint was the overall response rates (ORR) as assessed by the Independent Review Committee (IRC), and secondary endpoints included ORR by INV assessment, duration of response (DOR), progression free survival (PFS), overall survival (OS), disease control rate (DCR), and safety. […] Analysis was performed on data collected from a total of 101 patients with a median follow-up of 8.7 months from time of first response. All patients had pathologically confirmed PTCL (WHO criteria) with a CD4 lymphocyte count of ≥50/mm^3 and received ≥2 cycles of ≥1 prior standard regimen. Prior treatments received included CHOP/R-CHOP, CHOEP/EPOCH, or BV/BV-chemo (all 36.60% r), salvage chemo after CHOP/R-CHOP or CHOEP/EPOCH (37.60), and SCT (21.80). The mean treatment duration was 17.1 weeks, and the median (range) treatment duration was 9.0 (1-79) weeks. Exposure by treatment duration included 43.6% (≤2 cycles), 23.8% (>2-4 cycles), and […] (>4 cycles). The ORR by IRC was […]. In patients with ≥3 prior lines, the ORR was maintained (49.10%).

[3] = Prior Salvage Chemotherapy CHOP/R-CHOP or CHOEP/EPOCH
[4] = all causality, 1 prior regimen (N = 26)
[5] = all causality, 2 prior regimens (N = 22)
[6] = all causality, 3+ prior regimens (N = 53)
[7] = all causality, Tx Duration >2-4 cycles (N = 56)
[8] = all causality, Tx Duration >4 cycles (N = 31)
[9] = all causality, Tx Duration ≤2 cycles (N = 101)

C[C@H](Nc1ncnc2[nH]cnc12)c1cc2cccc(Cl)c2c(=O)n1-c1ccccc1 [duvelisib, (S)-3-(1-((9H-purin-6-yl)amino)ethyl)-8-chloro-2-phenylisoquinolin-1(2H)-one]
overall response rate (ORR) ([1]; 25 mg BID cohort (N=20)): 35%
patients with disease progression, 25 mg BID cohort compared to 75 mg BID ([1]; 25 mg BID cohort vs 75 mg BID cohort): three times as many patients experienced disease progression
overall response rate (ORR) ([1]; 75 mg BID cohort (N=13)): 54%
Discontinuations due to AEs ([1]; DUV25, 25 mg BID): 30%
TEAEs leading to discontinuation ([1]; DUV25, 25 mg BID): disease progression, pneumonitis (2 patients each), cardiac arrest, hypercalcemia, hyperglycemia, pneumonia, rash maculopapular, and respiratory failure (1 each)
fatal AEs (number) ([1]; DUV25, 25 mg BID): 5
Serious TEAEs occurred in ([1]; DUV25, 25 mg BID (n=15/20)): 75%
Discontinuations due to AEs ([1]; DUV75, 75 mg BID): 8%
TEAEs leading to discontinuation ([1]; DUV75, 75 mg BID): disease progression, infectious colitis, and sepsis (1 each)
fatal AEs (number) ([1]; DUV75, 75 mg BID (disease progression)): 1
Serious TEAEs occurred in ([1]; DUV75, 75 mg BID (n=9/13)): 69%
manageability of most TEAEs ([1]; both cohorts): manageable with dose reductions and dose holds
Serious TEAEs in ≥2 patients ([1]; both cohorts (N=33)): colitis, diarrhea, abdominal pain, pyrexia, PD, sepsis, pneumonia, hyponatremia, rash maculopapular, dyspnea, and respiratory failure
Response (CR + PR) by number of prior regimens ([2]; 1 prior regimen (n = 26)): 34.6%
Response (CR + PR) by number of prior regimens ([2]; 2 prior regimens (n = 22)): 63.6%
Response (CR + PR) by number of prior regimens ([2]; 3+ prior regimens (n = 53)): 49.1%
TEAEs leading to dose hold ([2]; % of patients): 37.6%
TEAEs leading to dose reduction ([2]; % of patients): 3.0%
diarrhea ([2]; AE, all causality, maximum GR3): 7.9%
increased alanine aminotransferase (ALT) ([2]; AE, all causality, maximum GR3): 14.9%
increased aspartate aminotransferase (AST) ([2]; AE, all causality, maximum GR3): 13.4%
neutropenia ([2]; AE, all causality, maximum GR3): 13.8%
rash maculo-papular ([2]; AE, all causality, maximum GR3): 7.9%
increased ALT ([2]; AE, all causality, maximum GR4): 5.9%
Median (range) PFS ([2]; N = 101): 3.62 (0.03+-17.2+) months
deaths in TEAEs other than PD (total) ([2]; N = 101): 8
BOR by prior therapy: CR ([2]; Prior BV or BV-chemo): 32.4 % of subgroup
BOR by prior therapy: PR ([2]; Prior BV or BV-chemo): 10.8 % of subgroup
BOR by prior therapy: SD ([2]; Prior BV or BV-chemo): 0 % of subgroup
BOR by prior therapy: CR ([2]; Prior CHOEP/EPOCH): 27.0 % of subgroup
BOR by prior therapy: PR ([2]; Prior CHOEP/EPOCH): 27.0 % of subgroup
BOR by prior therapy: SD ([2]; Prior CHOEP/EPOCH): 0 % of subgroup
BOR by prior therapy: CR ([2]; Prior CHOP/R-CHOP): 37.8 % of subgroup
BOR by prior therapy: PR ([2]; Prior CHOP/R-CHOP): 5.4 % of subgroup
BOR by prior therapy: SD ([2]; Prior CHOP/R-CHOP): 2.7 % of subgroup
BOR by prior therapy: CR ([2]; Prior SCT): 22.7 % of subgroup
BOR by prior therapy: PR ([2]; Prior SCT): 27.3 % of subgroup
BOR by prior therapy: SD ([2]; Prior SCT): 0 % of subgroup
BOR by prior therapy: CR [2, 3]: 44.7 % of subgroup
BOR by prior therapy: PR [2, 3]: 7.9 % of subgroup
BOR by prior therapy: SD [2, 3]: 0 % of subgroup
AESI Cutaneous reactions, % [2, 4]: (38.5) %
AESI Diarrhea, % [2, 4]: (15.4) %
AESI Infections, % [2, 4]: (30.8) %
AESI Neutropenia/neutrophil count decreased, % [2, 4]: (38.5) %
AESI Pneumonia, % [2, 4]: (3.8) %
AESI Pneumonitis, % [2, 4]: (3.8) %
AESI Transaminase elevation, % [2, 4]: (65.4) %
AESI Cutaneous reactions, % [2, 5]: (54.5) %
AESI Diarrhea, % [2, 5]: (27.3) %
AESI Infections, % [2, 5]: (31.8) %
AESI Neutropenia/neutrophil count decreased, % [2, 5]: (27.3) %
AESI Transaminase elevation, % [2, 5]: (40.9) %
AESI Colitis, % [2, 6]: (1.9) %
AESI Cutaneous reactions, % [2, 6]: (24.5) %
AESI Diarrhea, % [2, 6]: (39.6) %
AESI Infections, % [2, 6]: (49.1) %
AESI Neutropenia/neutrophil count decreased, % [2, 6]: (32.1) %
AESI Pneumonia, % [2, 6]: (3.8) %
AESI Pneumonitis, % [2, 6]: (1.9) %
AESI Transaminase elevation, % [2, 6]: (34.0) %
AESI Cutaneous reactions, % [2, 7]: (28.6) %
AESI Diarrhea, % [2, 7]: (14.3) %
AESI Infections, % [2, 7]: (16.1) %
AESI Neutropenia/neutrophil count decreased, % [2, 7]: (14.3) %
AESI Pneumonitis, % [2, 7]: (1.8) %
AESI Transaminase elevation, % [2, 7]: (30.4) %
AESI Colitis, % [2, 8]: (3.2) %
AESI Cutaneous reactions, % [2, 8]: (22.6) %
AESI Diarrhea, % [2, 8]: (22.6) %
AESI Infections, % [2, 8]: (32.3) %
AESI Neutropenia/neutrophil count decreased, % [2, 8]: (25.8) %
AESI Pneumonia, % [2, 8]: (3.2) %
AESI Cutaneous reactions, % [2, 9]: (19.8) %
AESI Diarrhea, % [2, 9]: (19.8) %
AESI Infections, % [2, 9]: (26.7) %
AESI Neutropenia/neutrophil count decreased, % [2, 9]: (28.7) %
AESI Pneumonia, % [2, 9]: (2.0) %
AESI Pneumonitis, % [2, 9]: (1.0) %
response rates regardless of number of prior regimens ([2]; all prior-regimen subgroups): ≥ 35%
Median duration of response ([2]; all responders): 7.7 months
increase of rate of cutaneous reactions ([2]; from Cycle ≤2 to Cycle >4): 2.8%
increase of rate of diarrhea ([2]; from Cycle ≤2 to Cycle >4): 2.8%
increase of rate of infections ([2]; from Cycle ≤2 to Cycle >4): 5.6%
tolerability ([2]; interim results of the expansion phase): well tolerated
Incidence of pneumonia, pneumonitis, and colitis ([2]; regardless of treatment duration, Cycle ≤2 to Cycle >4): 0-3.2%
Median duration of response ([2]; those in CR): 7.4 months
